Values quoted from earlier work in paper PMC7426938, “Induction of mitochondria-mediated apoptosis and suppression of tumor growth in zebrafish xenograft model by cyclic dipeptides identified from Exiguobacterium acetylicum” (Scientific Reports, 2020).
≈ marks a conversion by molar mass, not a printed value.

Assays:
HT-29 cells [1] = tested on: HT-29 cells; set-up: method as in PMID 15274345; settings: read-out: dose giving 50% growth inhibition; cited from earlier work
HeLa cells = tested on: HeLa cells; set-up: method as in PMID 15274345; settings: read-out: dose giving 50% growth inhibition; cited from earlier work
MCF-7 cells = tested on: MCF-7 cells; set-up: method as in PMID 15274345; settings: read-out: dose giving 50% growth inhibition; cited from earlier work
HT-29 cells [2] = tested on: HT-29 cells; set-up: method as in PMID 29211005, PMID 10052845; settings: cited from earlier work
HL-60 cells = tested on: HL-60 cells; set-up: method as in PMID 29211005, PMID 10052845; settings: cited from earlier work

## O=C1NC(Cc2ccccc2)C(=O)N2CCCC12 (centres unmarked) [cyclo (Phe-Pro)]
HT-29 cells [1]
  IC50: < 7 mM
HeLa cells
  IC50: < 7 mM
MCF-7 cells
  IC50: < 7 mM

## O=C1NC(Cc2ccc(O)cc2)C(=O)N2CCCC12 (centres unmarked) [cyclo (Tyr-Pro)]
HT-29 cells [1]
  IC50: < 7 mM
HeLa cells
  IC50: < 7 mM
MCF-7 cells
  IC50: < 7 mM

## CC(C)C[C@@H]1NC(=O)[C@H](NC(=O)c2cccc(O)c2O)CCCNC1=O [petrocidin-A]
HT-29 cells [2]
  IC50, anti-proliferative effect: 5.3 µg/mL (≈ 14.6 µM)
HL-60 cells
  IC50, anti-proliferative effect: 3.9 µg/mL (≈ 10.7 µM)
